Results on one compound are retold here after patent US20260226001A1, “PROCESS FOR PREPARING AN N-GUANYLAMINO ACID” (Evonik Operations GmbH, priority 2023, published 2026).

The conditions of series [1]: aqueous medium; cited from earlier work.
Series [2] can be described thus: Storage of acidic, concentrated permeate in a fridge; GAA content determined by HPLC. The series is classed as physicochemical. To be noted: for GAA content: acidic and concentrated permeate stored in a fridge. On the procedure: After fermentation and inactivation of the fermentation broth, the pH of the broth was adjusted to 1.5 using 75% w/w of H2SO4 at a temperature of 50° C. The biomass was removed by means of ultrafiltration and the temperature of the broth was kept constant at 50° C. The resulting permeate was concentrated at 80° C. and used for the crystallization step. The permeate fed to the crystallization was adjusted to pH 8 using 25% w/w of NH4OH. The formed crystals were separated by means of a suction filter and dried.
A part of the acidic and concentrated permeate was stored aside in a fridge over a period of ca. 2 weeks. The GAA content in said permeate was regularly determined by means of HPLC.
Description of the HPLC Method:
• 2.3 g ammonium dihydrogenphosphate (NH4H2PO4) and • 2.6 g di-ammonium hydrogenphosphate ((NH4)2HPO4) • dissolved in 2 L purified water
2.3 g ammonium dihydrogenphosphate (NH4H2PO4) and • 2.6 g di-ammonium hydrogenphosphate ((NH4)2HPO4) • dissolved in 1 L purified water and mixed with 1 L acetonitrile
The following gradient was used in the HPLC method: […]

With `N=C(N)NCC(=O)O` [GAA, guanidinoacetic acid], the pKa result in series [1] is on record as “approximately 2.9”. Further, the pKb result in series [1] is reported as “approximately 10.91”. In addition, the GAA content in series [2] (1 Apr. 2022) stood at 120.9 g/kg; in series [2] (7 Apr. 2022) it was 118.5 g/kg; in series [2] (12 Apr. 2022), 119.9 g/kg; in series [2] (13 Apr. 2022), 119.3 g/kg. Besides, the “degradation of the GAA in the acidic and concentrated permeate” value in series [2] (fridge, over the 2-week period, HPLC) is “no degradation”.
